Legend:
[1] = system: NCI-H2228 nude mice xenografts; test: In-vivo pharmacodynamic evaluation, NCI-H2228 subcutaneous xenograft; details: 10 mg/kg qd intragastric, 14 days, day 21
Method: In-Vivo Pharmacodynamic Evaluation
SCID Beige mice, female, 5-6 weeks old, weighed 18+2 g, purchased from Beijing HFK Bioscience Co., Ltd., bred in an SPF level environment.
NCI-H2228 cells were cultured in PRMI-1640 containing 10% fetal bovine serum (FBS) and 1% sodium pyruvate. The cells were cultured in an incubator at 37° C. with 5% CO2.
Establishment of subcutaneous tumor transplantation model in nude mice by cell inoculation: Tumor cells in logarithmic growth phase were collected, counted and re-suspended in PRMI-1640 basal medium. Matrigel was added at a ratio of 1:1, and the concentration of the cell suspension was adjusted to 6×10^7/ml. Tumor cells were subcutaneously inoculated to the right back of nude mice in an amount of 6×10^6/0.1 mL/mouse using a 1 mL syringe (with a […]).
When the tumor volume reached about 200 mm^3, the animals were randomly grouped according to randomized block method, so that the difference in tumor volume of each group was within 10% of the mean. There were 5 groups in total, each having 8 animals. The day of grouping was recorded as Day 0, and the animals were administered immediately after grouping. Compound I-3 of the present invention and Ceritinib were orally administered once a day for consecutive 14 days, and then observed for 7 days. The weight and tumor size of the animals were measured twice a week during the experiment. The clinical symptoms were observed and recorded daily. After the animals were weighed for the last time on Day 21, they were sacrificed by euthanization with CO2. The tumors were taken, weighed and photographed, and the average tumor size was calculated, to investigate the growth inhibitory effect of the test substance Compound I-3 on human lung cancer NCI-H2228 nude mice xenografts under the experimental conditions.
When the tumor in the tumor-bearing mice grew to a measurable size, the mice were randomly divided into 5 groups according to the principle of equal mean tumor volume using SPSS 17.0 software. Compound I-3 was administered by intragastric administration at a dosage of 30, 10, and 3 mg/kg per day. The positive control ceritinib was administered by intragastric administration at a dose of 10 mg/kg per day in a volume of 0.1 ml/10 g. These agents were administered once a day for consecutive 14 days. The animals in the negative control group were given an equal amount of solvent (1% DMSO in physiological saline). During the administration and recovery periods, the body weight and tumor size of the mice were measured 2-3 times per week. The tumor volume and relative tumor volume were calculated based on the measured data. The tumor volume (TV) was calculated by a formula below: TV=1/2×a×b^2, where a and b represent the major and minor diameters of the tumor, respectively. According to the measurement results, the relative tumor volume (RTV) was calculated, by a formula below: RTV=Vt/V0, where V0 is the tumor volume at the start of the experiment, and Vt is the tumor volume measured each time.

NCI-H3122 cells = test: Tumor cell growth inhibition test (CCK8 detection), NCI-H3122; assay type: cell-based, human
Method: (§1) Growth Inhibition Test of the Series of Compounds on Various Tumor Cells (CCK8 Detection)
(4) NCI-H3122 human lung cancer cell line, RPMI 1640+10% FBS+1% Sodium Pyruvate;
(§2) (1) Cell culture • a) Cells in logarithmic growth phase were collected, counted, and re-suspended in a complete medium. • b) The cell concentration was adjusted to an appropriate concentration, and inoculated into a 96-well plate in an amount of 100 μl of cell suspension per well. • c) The cells were incubated for 24 hrs in an incubator at 37° C. with 100% relative humidity and 5% CO2.
(§3) (2) Test of relative inhibition rate • 1) Cells in logarithmic growth phase were collected, counted, and re-suspended in a complete medium. The cell concentration was adjusted to an appropriate concentration (determined according to the optimal test result of cell density), and inoculated into a 96-well plate in an amount of 100 μl of cell suspension per well. The cells were incubated for 24 hrs in an incubator at 37° C. with 100% relative humidity and 5% CO2. • 2) The compound to be tested was diluted with the medium to the corresponding action concentration, and […] were added in an amount of 25 µl/well.
(§4) The IC50 curve was fitted using the software Graphpad Prism 5 and using the calculation formula log(inhibitor) vs response and the IC50 value was calculated.

Karpas 299 cells = test: Tumor cell growth inhibition test (CCK8 detection), Karpas 299; assay type: cell-based, human
Method: as §1
(2) Karpas 299 human T lymphoma cell line, RPMI 1640+10% FBS+1% Sodium Pyruvate;
as §2, §3, §4

NCI-H2228 cells = test: Tumor cell growth inhibition test (CCK8 detection), NCI-H2228; assay type: cell-based, human
Method: as §1
(3) NCI-H2228 human non-small cell lung cancer cell line, RPMI 1640+10% FBS+1% Sodium Pyruvate;
as §2, §3, §4

Ba/F3 cells = test: Tumor cell growth inhibition test (CCK8 detection), Ba/F3; assay type: cell-based, mouse
Method: as §1
(1) Ba/F3 mouse IL-3 dependent pro-B lymphocyte cell line, RPMI 1640+10% FBS+10 ng/ml Interleukin-3+1% Sodium Pyruvate;
as §2, §3, §4

ALK enzyme = ALK enzyme (Homo sapiens, UniProt Q9UM73); test: In-vitro ALK kinase inhibitory activity (HTRF kinEASE TK kit); assay type: biochemical; details: inhibitory activity for ALK enzyme, listed as 3, read-out: IC50 range
Chain of ALK enzyme (Q9UM73 19-1620 limits assumed): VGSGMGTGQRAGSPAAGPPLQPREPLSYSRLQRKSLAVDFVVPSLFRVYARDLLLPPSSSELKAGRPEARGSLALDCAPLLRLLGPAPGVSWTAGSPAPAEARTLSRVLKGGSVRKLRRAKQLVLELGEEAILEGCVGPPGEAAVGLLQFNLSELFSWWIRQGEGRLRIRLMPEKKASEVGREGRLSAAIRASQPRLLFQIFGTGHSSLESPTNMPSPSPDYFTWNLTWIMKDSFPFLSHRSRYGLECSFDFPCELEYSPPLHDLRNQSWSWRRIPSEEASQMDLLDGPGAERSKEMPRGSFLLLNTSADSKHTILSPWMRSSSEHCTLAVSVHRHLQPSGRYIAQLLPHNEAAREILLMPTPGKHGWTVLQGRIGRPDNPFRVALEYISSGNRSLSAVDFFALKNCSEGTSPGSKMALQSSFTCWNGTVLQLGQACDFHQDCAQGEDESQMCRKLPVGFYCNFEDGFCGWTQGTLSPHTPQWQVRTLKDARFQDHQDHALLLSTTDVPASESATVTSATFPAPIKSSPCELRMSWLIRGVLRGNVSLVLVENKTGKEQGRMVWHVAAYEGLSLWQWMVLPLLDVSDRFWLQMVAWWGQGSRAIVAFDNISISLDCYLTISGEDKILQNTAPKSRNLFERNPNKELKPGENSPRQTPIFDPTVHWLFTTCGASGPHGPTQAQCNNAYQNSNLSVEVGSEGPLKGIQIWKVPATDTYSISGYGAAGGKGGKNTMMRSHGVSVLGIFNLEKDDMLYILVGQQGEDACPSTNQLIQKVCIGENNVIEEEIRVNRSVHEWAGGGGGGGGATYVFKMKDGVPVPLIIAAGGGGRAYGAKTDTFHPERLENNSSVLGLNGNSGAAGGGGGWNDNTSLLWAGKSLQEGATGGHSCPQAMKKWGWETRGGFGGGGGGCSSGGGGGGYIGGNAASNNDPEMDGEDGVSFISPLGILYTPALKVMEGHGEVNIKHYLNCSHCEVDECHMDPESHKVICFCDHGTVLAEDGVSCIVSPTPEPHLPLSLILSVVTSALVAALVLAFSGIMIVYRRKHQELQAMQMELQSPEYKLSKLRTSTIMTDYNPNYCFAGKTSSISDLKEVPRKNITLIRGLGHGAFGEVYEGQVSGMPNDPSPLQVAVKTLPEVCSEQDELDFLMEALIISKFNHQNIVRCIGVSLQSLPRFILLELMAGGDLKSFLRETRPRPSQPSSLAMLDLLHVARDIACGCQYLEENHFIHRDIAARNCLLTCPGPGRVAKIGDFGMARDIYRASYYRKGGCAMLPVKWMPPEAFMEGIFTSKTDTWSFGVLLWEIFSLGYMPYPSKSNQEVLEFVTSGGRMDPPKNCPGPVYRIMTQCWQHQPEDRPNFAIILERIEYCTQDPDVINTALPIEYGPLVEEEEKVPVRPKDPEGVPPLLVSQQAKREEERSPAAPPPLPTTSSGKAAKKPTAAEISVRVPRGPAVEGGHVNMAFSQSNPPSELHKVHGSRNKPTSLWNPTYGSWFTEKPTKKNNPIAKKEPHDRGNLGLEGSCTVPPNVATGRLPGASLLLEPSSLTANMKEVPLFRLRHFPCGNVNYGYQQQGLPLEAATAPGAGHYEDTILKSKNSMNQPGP
Method: Anaplastic Lymphoma Kinase (ALK) Inhibitory Activity The in-vitro kinase assay was performed using the HTRF kinEASE TK kit available from Cisbio. The operation steps are indicated in the instructions of the kit. This method was used to detect the inhibitory effect of the compound to be tested on the activity of ALK enzymes in vitro, including wild-type ALK (Cat.PV3867, Invitrogen), ALK L1196M (Cat. PV6168, Life technologies), and ALK F1174L (Cat. PV6160, Life technologies). The specific operation steps were as follows. […] In addition to the control wells, 4 μL of the diluted compound solution to be tested was added to the reaction wells, and 4 μL of the 2.5% DMSO solution corresponding to the ALK enzyme previously formulated was added to the control wells. (2) 2 μL of a TK-biotin substrate solution previously formulated in a substrate concentration corresponding to the ALK enzyme was added to all reaction wells. (3) 2 μL of a previously prepared enzyme solution of corresponding concentration was added to all the reaction wells except the negative wells, and 2 μL of the 1× kinase buffer corresponding to the enzyme was added to the negative wells to make up the volume. The plate was sealed with a membrane, and incubated for 10 min at room temperature after mixing uniformly, such that the compounds were bond to the enzyme fully. (4) 2 μL of an ATP solution in a concentration corresponding to the ALK enzyme was added to all the reaction wells to initiate the kinase reaction, where the enzyme reaction time by ALK was 60 minutes. (5) An ALK test solution was prepared 5 minutes before the end of the kinase reaction. Streptavidin-XL665 and TK antibody europium cryptate (1:100) solutions for assay having a concentration corresponding to the enzyme were prepared using the detection buffer in the kit. (6) After the completion of the kinase reaction, 5 μl of diluted Streptavidin-XL665 was added to all the reaction wells respectively, and mixed uniformly, and then the diluted TK antibody europium cryptate solution for assay was added immediately. (7) The plate was sealed, mixed uniformly and allowed to react at room temperature for 1 h. The fluorescence signal (excitation at 320 nm, and emission at 665 nm and 615 nm) was detected using the ENVISION instrument (Perkinelmer). The inhibition rate for each well was calculated from the values of the fully active wells and the background signal wells. The values of replicated wells were averaged, and the half-maximal inhibitory activity (IC50) of each compound to be tested was fitted with a professional drawing analysis software PRISM 5.0.

SMILES	IR (%) [1] [%]	RTV d21 [1]	T/C (%) [1] [%]	IC50 (NCI-H3122 cells; Homo sapiens, NCI-H3122, 72 hrs) [nM]	IC50 (Karpas 299 cells; Homo sapiens, KARPAS-299, 72 hrs) [nM]	IC50 (NCI-H2228 cells; Homo sapiens, NCI-H2228, 72 hrs) [nM]	IC50 (Ba/F3 cells; Mus musculus, BaF3, 72 hrs) [nM]	IC50 (NCI-H3122 cells; 72 hrs) [nM]	IC50 (Karpas 299 cells; 72 hrs) [nM]	IC50 (ALK enzyme) [nM]	IC50 (NCI-H2228 cells; 72 hrs) [nM]	IC50 (Ba/F3 cells; 72 hrs) [nM]
Cc1cc(Nc2ncc(Cl)c(Nc3ccccc3S(=O)(=O)C(C)C)n2)c(OC(C)C)cc1C1CCNCC1 [Ceritinib, reference compound]	26.07	2.68 ± 0.28	71.47	27.2	35.6	97.1	2390	–	–	–	–	–
COc1cc(C2CCNCC2)c(C)cc1Nc1ncc(Cl)c(Nc2ccccc2S(=O)(=O)C(C)C)n1 [Compound I-3, 5-chloro-N4-(2-(isopropylsulfonyl)phenyl)-N2-(2-D3-methoxy-5-methyl-4-(piperidin-4-yl)phenyl)pyrimidin-2,4-diamine]	–	–	–	–	–	–	–	4.03	7.64	1 to 10	41.3	1240

From patent publication US10647694B2, “Diphenylaminopyrimidine and triazine compound, and pharmaceutical composition and use thereof” (ARROMAX PHARMATECH CO., LTD., priority 2016, dated 2020)
